*1 amine or outer side, *2 acyl side, *3 side chain or, on linkers, in order; H or OH if unused. Where a SMILES comes first, the peptide text is derived from it. [ ]: non-standard residue; d: D form. The star is where a group is joined. ξ: configuration not given here. DOTA = O=C(O)CN1CCN(CC(=O)O)CCN(CC(=O)*)CCN(CC(=O)O)CC1; Butanoyl(4-(4-MeO-phenyl)) = COc1ccc(CCCC(=O)*)cc1; ξAla(9-anthryl) = NC(Cc1c2ccccc2cc2ccccc12)C(=O)O; X2 = O=C(NC(CCCCN*)C(=O)O)NC(CC(F)C(=O)O)C(=O)O; X1 = O=C(C1CCC(CN[*:1])CC1)[*:2]; ξK = NCCCCC(N)C(=O)O
Test system: NRG-mice bearing LNCaP tumors
Assay: Biodistribution (and PET/SPECT imaging) in NRG-mice bearing LNCaP tumors
Assay type: in vivo
Conditions: Avg
Method: LNCaP cell line was obtained from ATCC (LNCaP clone FGC, CRL-1740). It was established from a metastatic site of left supraclavicular lymph node of human prostatic adenocarcinoma. Cells were cultured in PRMI 1640 medium supplemented with 10% FBS, penicillin (100 U/mL) and streptomycin (100 μg/mL) at 37° C. in a humidified incubator containing 5% CO2. Cells grown to 80-90% confluence were then washed with sterile phosphate-buffered saline (1×PBS pH 7.4) and trypsinization. The collected cells number was counted with a Hausser Scientific (Horsham, PA) Hemacytometer. Approximately 10 million LNCaP cells were inoculated into the left dorsal flank of immunocomprised NRG mice. The tumours were allowed to grow for 4-6 weeks and used for imaging and biodistribution studies when a volume of 200-600 mm^3 was reached.
PET imaging experiments were conducted using Siemens Inveon micro PET/CT scanner. SPECT imaging experiments were conducted using an MILabs micro SPECT/CT scanner. Each tumor bearing mouse was injected 4-6 MBq of ^68Ga or 18.5 MBq of ^177Lu labeled tracer through the tail vein under anesthesia (2% isoflurane in oxygen). The mice were allowed to recover and roam freely in their cage. At pre-defined time point, the mice were sedated again with 2% isoflurane in oxygen inhalation and positioned in the scanner. A 10-min CT scan was conducted first for localization and attenuation correction after segmentation for reconstructing the PET or SPECT images. Then, a 10-min static PET imaging or a one hour (30 min×2 frames) of static SPECT scan was performed to determined uptake in tumor and other organs. The mice were kept warm by a heating pad during acquisition.
For biodistribution studies, the mice were injected with the radiotracer as described above. The mice were anesthetized with 2% isoflurane inhalation, and euthanized by CO2 inhalation. Blood was withdrawn immediately from the heart, and the organs/tissues of interest were collected. The collected organs/tissues were weighed and counted using a Perkin Elmer (Waltham, MA) Wizard2 2480 gamma counter. The uptake in each organ/tissue was normalized to the injected dose (radioactivity) using a standard curve, and expressed as the percentage of the injected dose per gram of tissue (% ID/g).

Biodistribution: Adrenal gland (4 h p.i.): 5.91 % ID/g
Biodistribution: Blood (4 h p.i.): 24.97 % ID/g
Biodistribution: Bone (4 h p.i.): 1.49 % ID/g
Biodistribution: Brain (4 h p.i.): 0.47 % ID/g
Biodistribution: Fat (4 h p.i.): 2.63 % ID/g
Biodistribution: Heart (4 h p.i.): 5.42 % ID/g
Biodistribution: Intestine (4 h p.i.): 1.87 % ID/g
Biodistribution: LNCaP tumor (4 h p.i.): 21.30 % ID/g
Biodistribution: Lacrimal gland (4 h p.i.): 1.44 % ID/g
Biodistribution: Liver (4 h p.i.): 4.26 % ID/g
Biodistribution: Lungs (4 h p.i.): 10.19 % ID/g
Biodistribution: Muscle (4 h p.i.): 1.75 % ID/g
Biodistribution: Pancreas (4 h p.i.): 2.20 % ID/g
Biodistribution: Salivary gland (4 h p.i.): 4.23 % ID/g
Biodistribution: Seminal gland (4 h p.i.): 1.53 % ID/g
Biodistribution: Spleen (4 h p.i.): 2.15 % ID/g
Biodistribution: Stomach (4 h p.i.): 1.11 % ID/g
Biodistribution: Testes (4 h p.i.): 3.83 % ID/g
Biodistribution: Thyroid (4 h p.i.): 4.29 % ID/g
Biodistribution: Urine (4 h p.i.): 76.61 % ID/g
Biodistribution: kidney (4 h p.i.): 10.56 % ID/g
Biodistribution: Adrenal gland (24 h p.i.): 2.39 % ID/g
Biodistribution: Blood (24 h p.i.): 4.37 % ID/g
Biodistribution: Bone (24 h p.i.): 0.36 % ID/g
Biodistribution: Brain (24 h p.i.): 0.09 % ID/g
Biodistribution: Fat (24 h p.i.): 0.71 % ID/g
Biodistribution: Heart (24 h p.i.): 1.27 % ID/g
Biodistribution: Intestine (24 h p.i.): 0.59 % ID/g
Biodistribution: LNCaP tumor (24 h p.i.): 38.57 % ID/g
Biodistribution: Lacrimal gland (24 h p.i.): 0.12 % ID/g
Biodistribution: Liver (24 h p.i.): 1.16 % ID/g
Biodistribution: Lungs (24 h p.i.): 2.49 % ID/g
Biodistribution: Muscle (24 h p.i.): 0.40 % ID/g
Biodistribution: Pancreas (24 h p.i.): 0.62 % ID/g
Biodistribution: Salivary gland (24 h p.i.): 1.38 % ID/g
Biodistribution: Seminal gland (24 h p.i.): 0.38 % ID/g
Biodistribution: Spleen (24 h p.i.): 0.86 % ID/g
Biodistribution: Stomach (24 h p.i.): 0.48 % ID/g
Biodistribution: Testes (24 h p.i.): 1.86 % ID/g
Biodistribution: Thyroid (24 h p.i.): 1.54 % ID/g
Biodistribution: Urine (24 h p.i.): 28.57 % ID/g
Biodistribution: kidney (24 h p.i.): 7.55 % ID/g
Biodistribution: Adrenal gland (72 h p.i.): 2.59 % ID/g
Biodistribution: Blood (72 h p.i.): 0.42 % ID/g
Biodistribution: Bone (72 h p.i.): 0.26 % ID/g
Biodistribution: Brain (72 h p.i.): 0.03 % ID/g
Biodistribution: Fat (72 h p.i.): 0.39 % ID/g
Biodistribution: Heart (72 h p.i.): 0.37 % ID/g
Biodistribution: Intestine (72 h p.i.): 0.15 % ID/g
Biodistribution: LNCaP tumor (72 h p.i.): 38.46 % ID/g
Biodistribution: Lacrimal gland (72 h p.i.): 0.07 % ID/g
Biodistribution: Liver (72 h p.i.): 0.47 % ID/g
Biodistribution: Lungs (72 h p.i.): 0.69 % ID/g
Biodistribution: Muscle (72 h p.i.): 0.11 % ID/g
Biodistribution: Pancreas (72 h p.i.): 0.17 % ID/g
Biodistribution: Salivary gland (72 h p.i.): 0.55 % ID/g
Biodistribution: Seminal gland (72 h p.i.): 0.15 % ID/g
Biodistribution: Spleen (72 h p.i.): 0.83 % ID/g
Biodistribution: Stomach (72 h p.i.): 0.18 % ID/g
Biodistribution: Testes (72 h p.i.): 0.92 % ID/g
Biodistribution: Thyroid (72 h p.i.): 0.65 % ID/g
Biodistribution: Urine (72 h p.i.): 4.51 % ID/g
Biodistribution: kidney (72 h p.i.): 3.53 % ID/g
Biodistribution: Adrenal gland (120 h p.i.): 1.39 % ID/g
Biodistribution: Blood (120 h p.i.): 0.14 % ID/g
Biodistribution: Bone (120 h p.i.): 0.14 % ID/g
Biodistribution: Brain (120 h p.i.): 0.02 % ID/g
Biodistribution: Fat (120 h p.i.): 0.22 % ID/g
Biodistribution: Heart (120 h p.i.): 0.22 % ID/g
Biodistribution: Intestine (120 h p.i.): 0.14 % ID/g
Biodistribution: LNCaP tumor (120 h p.i.): 45.01 % ID/g
Biodistribution: Lacrimal gland (120 h p.i.): 0.12 % ID/g
Biodistribution: Liver (120 h p.i.): 0.30 % ID/g
Biodistribution: Lungs (120 h p.i.): 0.30 % ID/g
Biodistribution: Muscle (120 h p.i.): 0.09 % ID/g
Biodistribution: Pancreas (120 h p.i.): 0.11 % ID/g
Biodistribution: Salivary gland (120 h p.i.): 0.34 % ID/g
Biodistribution: Seminal gland (120 h p.i.): 0.27 % ID/g
Biodistribution: Spleen (120 h p.i.): 1.45 % ID/g
Biodistribution: Stomach (120 h p.i.): 0.37 % ID/g
Biodistribution: Testes (120 h p.i.): 0.67 % ID/g
Biodistribution: Thyroid (120 h p.i.): 0.39 % ID/g
Biodistribution: Urine (120 h p.i.): 3.80 % ID/g
Biodistribution: kidney (120 h p.i.): 2.04 % ID/g
SMILES: COc1ccc(CCCC(=O)NCC(=O)NC(CCCCNC(=O)CN2CCN(CC(=O)[O-])CCN(CC(=O)[O-])CCN(CC(=O)[O-])CC2)C(=O)NCC(=O)NCC2CCC(C(=O)NC(Cc3c4ccccc4cc4ccccc34)C(=O)NCCCCC(NC(=O)NC(CC(F)C(=O)O)C(=O)O)C(=O)O)CC2)cc1.[177Lu+3] (stereo not drawn) [^177Lu-CCZ02008] ({Butanoyl(4-(4-MeO-phenyl))}-G[ξK](DOTA)G[X1][ξAla(9-anthryl)]-X2)

Source: patent US20250186627A1, “RADIOLABELED COMPOUNDS TARGETING THE PROSTATE-SPECIFIC MEMBRANE ANTIGEN” (PROVINCIAL HEALTH SERVICES AUTHORITY, priority 2022, published 2025)
